Measurements as given in article PMC9030254, “Target Hopping from Protein Kinases to PXR: Identification of Small-Molecule Protein Kinase Inhibitors as Selective Modulators of Pregnane X Receptor from TüKIC Library” (Cells, 2022).

Columns and labels:
Experiment in all cases: Kinase profiling
Assay type in all cases: biochemical
[1] = target: T1, VEGFR3 (Homo sapiens, UniProt P35916)
T1 construct: purchased ProQinase (Freiburg, Germany)
Method: (§1) The analysis was performed by ProQinase (Freiburg, Germany).

[2] = target: T2, EIF2AK2 (Homo sapiens, UniProt P19525)
T2 construct: purchased ProQinase (Freiburg, Germany)
T2 sequence (P19525 whole entry): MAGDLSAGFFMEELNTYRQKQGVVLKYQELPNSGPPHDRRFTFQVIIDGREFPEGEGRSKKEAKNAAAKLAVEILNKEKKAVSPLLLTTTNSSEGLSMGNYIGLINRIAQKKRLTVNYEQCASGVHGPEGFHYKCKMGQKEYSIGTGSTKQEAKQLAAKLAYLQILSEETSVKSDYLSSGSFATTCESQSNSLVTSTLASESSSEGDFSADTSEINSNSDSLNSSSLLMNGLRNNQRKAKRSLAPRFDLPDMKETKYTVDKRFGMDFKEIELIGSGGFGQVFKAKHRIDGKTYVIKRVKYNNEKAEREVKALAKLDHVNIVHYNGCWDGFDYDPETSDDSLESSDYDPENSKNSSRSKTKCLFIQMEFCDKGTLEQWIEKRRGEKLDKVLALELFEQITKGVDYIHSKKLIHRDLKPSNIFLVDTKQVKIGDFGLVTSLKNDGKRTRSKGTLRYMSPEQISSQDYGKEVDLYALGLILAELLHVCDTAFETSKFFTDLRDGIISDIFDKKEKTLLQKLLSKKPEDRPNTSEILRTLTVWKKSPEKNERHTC
Method: as §1

[3] = target: T3, EPHA7 (Homo sapiens, UniProt Q15375)
T3 construct: purchased ProQinase (Freiburg, Germany)
T3 sequence (Q15375 28-998): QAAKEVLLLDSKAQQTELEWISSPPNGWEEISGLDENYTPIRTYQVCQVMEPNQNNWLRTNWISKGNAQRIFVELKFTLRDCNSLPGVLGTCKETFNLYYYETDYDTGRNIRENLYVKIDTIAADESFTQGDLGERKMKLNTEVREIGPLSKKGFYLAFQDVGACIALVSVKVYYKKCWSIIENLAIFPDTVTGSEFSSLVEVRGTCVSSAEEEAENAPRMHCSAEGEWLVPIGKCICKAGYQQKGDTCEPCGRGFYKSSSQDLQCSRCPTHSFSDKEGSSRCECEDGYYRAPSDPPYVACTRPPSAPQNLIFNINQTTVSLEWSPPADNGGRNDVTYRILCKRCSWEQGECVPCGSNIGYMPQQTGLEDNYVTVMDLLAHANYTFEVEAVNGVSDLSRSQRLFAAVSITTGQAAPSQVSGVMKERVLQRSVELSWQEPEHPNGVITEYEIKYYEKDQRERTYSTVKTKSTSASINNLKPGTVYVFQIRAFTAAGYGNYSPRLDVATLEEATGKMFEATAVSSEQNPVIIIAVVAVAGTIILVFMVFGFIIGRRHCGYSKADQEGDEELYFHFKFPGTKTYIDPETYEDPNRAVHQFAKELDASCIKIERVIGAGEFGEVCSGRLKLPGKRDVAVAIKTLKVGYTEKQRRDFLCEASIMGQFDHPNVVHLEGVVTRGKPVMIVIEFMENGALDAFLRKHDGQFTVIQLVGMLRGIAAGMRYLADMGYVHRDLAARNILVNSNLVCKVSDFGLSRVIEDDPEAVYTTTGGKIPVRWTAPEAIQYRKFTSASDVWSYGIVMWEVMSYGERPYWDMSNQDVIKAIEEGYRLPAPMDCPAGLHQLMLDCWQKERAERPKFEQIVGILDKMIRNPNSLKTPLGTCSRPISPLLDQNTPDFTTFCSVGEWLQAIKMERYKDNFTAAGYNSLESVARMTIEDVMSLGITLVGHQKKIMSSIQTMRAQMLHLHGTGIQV
Method: as §1

[4] = target: T4, CDK12/CycK (Homo sapiens, UniProt Q9NYV4)
T4 construct: purchased ProQinase (Freiburg, Germany)
T4 sequence (Q9NYV4 whole entry): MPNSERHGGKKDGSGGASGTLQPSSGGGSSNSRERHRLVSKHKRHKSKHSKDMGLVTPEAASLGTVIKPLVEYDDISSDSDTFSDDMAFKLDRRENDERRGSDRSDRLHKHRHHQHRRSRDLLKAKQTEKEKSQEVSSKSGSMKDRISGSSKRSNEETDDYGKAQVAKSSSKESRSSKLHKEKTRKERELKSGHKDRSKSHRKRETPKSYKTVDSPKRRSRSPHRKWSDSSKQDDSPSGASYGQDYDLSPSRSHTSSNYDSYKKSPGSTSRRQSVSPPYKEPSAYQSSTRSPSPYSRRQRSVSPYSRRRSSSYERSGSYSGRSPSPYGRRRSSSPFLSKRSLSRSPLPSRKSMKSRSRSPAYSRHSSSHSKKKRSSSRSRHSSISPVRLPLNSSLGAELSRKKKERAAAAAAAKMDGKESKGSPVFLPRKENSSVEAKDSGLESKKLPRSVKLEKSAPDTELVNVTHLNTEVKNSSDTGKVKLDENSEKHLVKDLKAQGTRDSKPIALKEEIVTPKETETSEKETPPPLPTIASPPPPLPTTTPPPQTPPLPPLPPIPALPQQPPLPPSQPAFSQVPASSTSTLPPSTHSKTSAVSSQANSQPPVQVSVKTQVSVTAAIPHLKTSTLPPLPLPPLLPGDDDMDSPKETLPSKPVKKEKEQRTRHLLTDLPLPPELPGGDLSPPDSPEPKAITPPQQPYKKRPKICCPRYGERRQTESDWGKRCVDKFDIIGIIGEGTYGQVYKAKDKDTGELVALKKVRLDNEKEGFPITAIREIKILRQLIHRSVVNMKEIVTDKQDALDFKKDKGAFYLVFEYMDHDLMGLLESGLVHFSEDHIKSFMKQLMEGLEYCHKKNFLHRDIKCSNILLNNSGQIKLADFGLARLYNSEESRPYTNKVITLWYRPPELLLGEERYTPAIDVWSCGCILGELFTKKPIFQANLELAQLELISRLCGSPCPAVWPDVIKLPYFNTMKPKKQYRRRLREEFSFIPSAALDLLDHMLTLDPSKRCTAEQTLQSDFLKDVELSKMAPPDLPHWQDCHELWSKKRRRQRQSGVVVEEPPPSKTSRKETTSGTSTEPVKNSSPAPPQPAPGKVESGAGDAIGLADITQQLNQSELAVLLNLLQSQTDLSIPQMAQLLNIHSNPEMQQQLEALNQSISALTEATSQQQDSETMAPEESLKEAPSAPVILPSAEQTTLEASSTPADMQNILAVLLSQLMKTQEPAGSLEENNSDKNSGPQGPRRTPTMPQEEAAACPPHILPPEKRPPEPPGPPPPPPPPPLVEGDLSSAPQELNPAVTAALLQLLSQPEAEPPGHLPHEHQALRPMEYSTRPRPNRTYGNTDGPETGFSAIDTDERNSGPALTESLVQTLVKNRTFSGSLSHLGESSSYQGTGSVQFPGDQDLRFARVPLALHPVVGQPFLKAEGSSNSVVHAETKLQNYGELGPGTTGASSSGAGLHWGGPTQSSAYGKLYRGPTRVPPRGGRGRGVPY
T4 sequence (O75909 whole entry partner): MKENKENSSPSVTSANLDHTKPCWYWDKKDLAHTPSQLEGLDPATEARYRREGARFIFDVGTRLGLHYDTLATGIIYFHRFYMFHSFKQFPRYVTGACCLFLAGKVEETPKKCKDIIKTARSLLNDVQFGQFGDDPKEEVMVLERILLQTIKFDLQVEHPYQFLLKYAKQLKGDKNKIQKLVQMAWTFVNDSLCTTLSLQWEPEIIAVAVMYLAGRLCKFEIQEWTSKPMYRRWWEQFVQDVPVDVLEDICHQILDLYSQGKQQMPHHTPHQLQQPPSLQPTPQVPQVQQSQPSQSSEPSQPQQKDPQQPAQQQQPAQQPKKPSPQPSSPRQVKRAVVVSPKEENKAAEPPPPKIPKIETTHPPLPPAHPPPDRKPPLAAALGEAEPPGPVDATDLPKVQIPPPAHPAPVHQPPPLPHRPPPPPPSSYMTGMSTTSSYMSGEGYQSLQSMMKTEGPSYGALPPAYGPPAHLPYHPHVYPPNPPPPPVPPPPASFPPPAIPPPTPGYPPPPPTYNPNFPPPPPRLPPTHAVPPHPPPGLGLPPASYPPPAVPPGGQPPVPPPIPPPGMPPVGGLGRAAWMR
Method: as §1

[5] = target: T5, CDK1/CycE1 (Homo sapiens, UniProt P06493)
T5 construct: purchased ProQinase (Freiburg, Germany)
T5 sequence (P06493 whole entry): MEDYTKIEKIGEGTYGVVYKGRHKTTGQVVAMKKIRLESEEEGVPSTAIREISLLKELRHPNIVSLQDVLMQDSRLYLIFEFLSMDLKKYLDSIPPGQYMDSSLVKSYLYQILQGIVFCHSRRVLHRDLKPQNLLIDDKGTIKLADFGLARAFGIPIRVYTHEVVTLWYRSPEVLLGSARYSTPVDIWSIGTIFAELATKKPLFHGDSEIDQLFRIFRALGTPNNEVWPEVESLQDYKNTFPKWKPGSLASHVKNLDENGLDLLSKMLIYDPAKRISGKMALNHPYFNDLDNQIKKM
T5 sequence (P24864 whole entry partner): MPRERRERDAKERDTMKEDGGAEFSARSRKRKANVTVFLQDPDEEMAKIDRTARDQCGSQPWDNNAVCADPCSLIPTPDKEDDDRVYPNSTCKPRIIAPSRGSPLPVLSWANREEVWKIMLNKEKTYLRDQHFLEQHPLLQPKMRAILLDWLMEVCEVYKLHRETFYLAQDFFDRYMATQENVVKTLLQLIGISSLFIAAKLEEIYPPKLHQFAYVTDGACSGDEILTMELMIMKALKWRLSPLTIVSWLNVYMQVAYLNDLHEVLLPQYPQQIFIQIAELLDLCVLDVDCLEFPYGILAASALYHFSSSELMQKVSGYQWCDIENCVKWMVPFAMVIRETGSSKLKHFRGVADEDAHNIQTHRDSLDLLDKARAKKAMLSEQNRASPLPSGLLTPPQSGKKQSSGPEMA
Method: as §1

[6] = target: T6, PKCnu (Homo sapiens, UniProt O94806)
T6 construct: purchased ProQinase (Freiburg, Germany)
T6 sequence (O94806 1-890): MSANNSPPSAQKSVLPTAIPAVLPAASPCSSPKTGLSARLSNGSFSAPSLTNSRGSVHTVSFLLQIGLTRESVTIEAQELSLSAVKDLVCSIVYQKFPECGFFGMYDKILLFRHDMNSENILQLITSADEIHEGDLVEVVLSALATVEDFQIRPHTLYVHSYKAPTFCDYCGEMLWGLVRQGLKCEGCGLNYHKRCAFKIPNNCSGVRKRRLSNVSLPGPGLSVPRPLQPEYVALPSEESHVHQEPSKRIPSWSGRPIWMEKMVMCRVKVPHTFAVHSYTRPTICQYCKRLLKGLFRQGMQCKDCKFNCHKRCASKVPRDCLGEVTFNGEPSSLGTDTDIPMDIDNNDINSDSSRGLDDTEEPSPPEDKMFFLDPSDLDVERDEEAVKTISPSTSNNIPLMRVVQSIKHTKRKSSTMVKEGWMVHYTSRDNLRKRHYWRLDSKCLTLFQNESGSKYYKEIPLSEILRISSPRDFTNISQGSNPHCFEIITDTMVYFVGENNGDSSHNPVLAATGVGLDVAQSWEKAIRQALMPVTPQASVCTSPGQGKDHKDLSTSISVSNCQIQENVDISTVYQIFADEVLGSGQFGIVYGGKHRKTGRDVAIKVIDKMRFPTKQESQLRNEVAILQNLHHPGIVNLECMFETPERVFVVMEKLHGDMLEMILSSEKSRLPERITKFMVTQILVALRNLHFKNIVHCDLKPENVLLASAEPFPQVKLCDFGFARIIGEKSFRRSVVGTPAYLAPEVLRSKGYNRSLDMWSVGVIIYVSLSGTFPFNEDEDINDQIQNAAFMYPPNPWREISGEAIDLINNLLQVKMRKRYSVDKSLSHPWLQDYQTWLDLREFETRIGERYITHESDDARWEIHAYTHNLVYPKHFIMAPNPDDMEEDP
Method: as §1

[7] = target: T7, TTK (Homo sapiens, UniProt P33981)
T7 construct: purchased ProQinase (Freiburg, Germany)
T7 sequence (P33981 1-857): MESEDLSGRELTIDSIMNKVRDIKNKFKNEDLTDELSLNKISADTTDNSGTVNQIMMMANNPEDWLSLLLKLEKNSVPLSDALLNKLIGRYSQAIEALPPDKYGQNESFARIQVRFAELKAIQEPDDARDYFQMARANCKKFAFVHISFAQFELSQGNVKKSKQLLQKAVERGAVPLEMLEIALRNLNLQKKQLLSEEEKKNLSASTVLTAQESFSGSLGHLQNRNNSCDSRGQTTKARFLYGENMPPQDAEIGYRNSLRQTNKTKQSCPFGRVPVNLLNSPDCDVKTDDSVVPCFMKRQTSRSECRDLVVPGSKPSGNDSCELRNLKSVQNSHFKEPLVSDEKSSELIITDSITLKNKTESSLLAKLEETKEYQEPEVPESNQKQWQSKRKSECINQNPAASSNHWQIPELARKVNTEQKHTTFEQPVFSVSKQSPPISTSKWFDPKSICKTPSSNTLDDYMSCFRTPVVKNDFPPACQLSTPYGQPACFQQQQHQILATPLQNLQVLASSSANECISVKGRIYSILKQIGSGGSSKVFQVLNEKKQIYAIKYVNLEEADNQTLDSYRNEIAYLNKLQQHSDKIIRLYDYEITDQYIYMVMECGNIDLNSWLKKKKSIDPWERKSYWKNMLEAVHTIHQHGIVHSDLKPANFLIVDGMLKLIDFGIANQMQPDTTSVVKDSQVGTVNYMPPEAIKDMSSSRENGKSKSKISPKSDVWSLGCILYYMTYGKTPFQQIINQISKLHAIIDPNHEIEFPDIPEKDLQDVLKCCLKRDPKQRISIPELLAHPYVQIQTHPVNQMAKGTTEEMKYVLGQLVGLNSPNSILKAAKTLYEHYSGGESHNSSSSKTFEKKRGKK
Method: as §1

[8] = target: T8, PAK6 (Homo sapiens, UniProt Q9NQU5)
T8 construct: purchased ProQinase (Freiburg, Germany)
T8 sequence (Q9NQU5 whole entry): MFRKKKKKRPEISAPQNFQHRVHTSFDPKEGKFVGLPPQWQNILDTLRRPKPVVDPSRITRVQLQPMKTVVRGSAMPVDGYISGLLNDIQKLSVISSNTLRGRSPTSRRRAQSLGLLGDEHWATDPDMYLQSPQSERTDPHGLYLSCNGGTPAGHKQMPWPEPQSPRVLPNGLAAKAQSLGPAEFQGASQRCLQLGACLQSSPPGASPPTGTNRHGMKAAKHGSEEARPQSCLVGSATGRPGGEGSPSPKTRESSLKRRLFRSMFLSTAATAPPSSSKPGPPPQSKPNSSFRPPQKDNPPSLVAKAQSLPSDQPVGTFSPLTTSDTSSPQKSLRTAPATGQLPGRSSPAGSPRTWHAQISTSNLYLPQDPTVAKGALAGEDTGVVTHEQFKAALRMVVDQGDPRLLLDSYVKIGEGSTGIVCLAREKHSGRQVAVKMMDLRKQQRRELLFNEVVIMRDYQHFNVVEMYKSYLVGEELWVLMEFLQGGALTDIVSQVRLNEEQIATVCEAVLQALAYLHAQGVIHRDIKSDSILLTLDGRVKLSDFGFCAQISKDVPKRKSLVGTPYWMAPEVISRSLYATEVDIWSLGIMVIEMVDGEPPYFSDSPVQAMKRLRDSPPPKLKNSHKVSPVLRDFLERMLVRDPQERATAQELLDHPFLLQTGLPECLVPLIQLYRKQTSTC
Method: as §1

[9] = target: T9, ARK5 (Homo sapiens, UniProt O60285)
T9 construct: purchased ProQinase (Freiburg, Germany)
T9 sequence (O60285 1-661): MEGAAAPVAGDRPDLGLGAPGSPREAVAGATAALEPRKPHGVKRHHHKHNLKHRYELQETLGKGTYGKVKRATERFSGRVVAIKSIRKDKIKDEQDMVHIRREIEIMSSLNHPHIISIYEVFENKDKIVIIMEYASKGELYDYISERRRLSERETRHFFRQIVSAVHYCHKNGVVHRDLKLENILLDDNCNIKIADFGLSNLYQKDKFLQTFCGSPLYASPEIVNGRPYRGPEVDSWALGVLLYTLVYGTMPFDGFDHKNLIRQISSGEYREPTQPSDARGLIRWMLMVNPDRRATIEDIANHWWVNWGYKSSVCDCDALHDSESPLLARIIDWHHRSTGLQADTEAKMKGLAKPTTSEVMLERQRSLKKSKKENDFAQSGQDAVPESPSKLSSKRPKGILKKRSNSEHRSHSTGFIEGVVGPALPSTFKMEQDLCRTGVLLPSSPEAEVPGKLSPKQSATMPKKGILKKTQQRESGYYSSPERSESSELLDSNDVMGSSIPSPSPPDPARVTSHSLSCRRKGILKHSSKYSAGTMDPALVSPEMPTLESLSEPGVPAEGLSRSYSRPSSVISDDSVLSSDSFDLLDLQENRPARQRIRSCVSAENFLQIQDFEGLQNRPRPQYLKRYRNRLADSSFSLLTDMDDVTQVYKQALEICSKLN
Method: as §1

Row | Compound | Residual activity ([1]; 1.0E-05 M) | Residual activity ([1]; 1.0E-06 M) | Residual activity ([2]; 1.0E-05 M) | Residual activity ([2]; 1.0E-06 M) | Residual activity ([3]; 1.0E-05 M) | Residual activity ([3]; 1.0E-06 M) | Residual activity ([4]; 1.0E-05 M) | Residual activity ([4]; 1.0E-06 M) | Residual activity ([5]; 1.0E-05 M) | Residual activity ([5]; 1.0E-06 M) | Residual activity ([6]; 1.0E-05 M) | Residual activity ([6]; 1.0E-06 M) | Residual activity ([7]; 1.0E-05 M) | Residual activity ([7]; 1.0E-06 M) | Residual activity ([8]; 1.0E-05 M) | Residual activity ([8]; 1.0E-06 M) | Residual activity ([9]; 1.0E-05 M) | Residual activity ([9]; 1.0E-06 M)
1 | O=C(Cc1ccccc1)Nc1ccc(F)c(Nc2ccc3c(c2)CCCCC3=O)c1 [Compound 100] | 84 % of control | 108 % of control | 113 % of control | 97 % of control | 101 % of control | 103 % of control | 100 % of control | 104 % of control | 100 % of control | 102 % of control | 65 % of control | 88 % of control | 95 % of control | 99 % of control | 98 % of control | 101 % of control | 91 % of control | 90 % of control
2 | O=C(Nc1ccc(F)c(Nc2ccc3c(c2)CCCCC3=O)c1)c1cccc(F)c1 [Compound 109] | 88 % of control | 105 % of control | 114 % of control | 94 % of control | 96 % of control | 85 % of control | 99 % of control | 105 % of control | 98 % of control | 96 % of control | 69 % of control | 88 % of control | 89 % of control | 91 % of control | 90 % of control | 99 % of control | 88 % of control | 92 % of control
